Experimental data: ChEMBL document CHEMBL6083206, “SLL-1A-16 suppresses proliferation and induces autophagy in non-small-cell lung cancer cells via the AKT/mTOR signaling pathway” (RSC Med Chem, 2024)
Active and inactive are the calls of the source. The rule behind the calls is not given here.

Columns and labels:
A549 [1] = assay: Inhibition of Akt/mTOR signalling pathway in human A549 cells assessed as decrease in c-myc expression by Western blot analysis; format: cell-based; conditions: dose 10-30 µM
NCI-H460 [2] = assay: Inhibition of Akt/mTOR signaling pathway in human NCI-H460 cells assessed as decrease in phosphorylated 4EBP1 expression in presence of temsirolimus by Western blot analysis; format: cell-based
NCI-H460 [3] = assay: Induction of autophagy in human NCI-H460 cells assessed as increase in Atg5 expression at 10 to 30 uM incubated for 24 hrs by Western blot analysis; format: functional, cell-based; conditions: dose 10-30 µM
A549 [4] = assay: Cell cycle arrest in human A549 cells assessed as downregulation of CDK4 expression at 10 to 30 uM by Western blot analysis; format: functional, cell-based; conditions: dose 10-30 µM
A549 [5] = assay: Induction of apoptosis in human A549 cells assessed as decrease in Bcl2 expression at 10 to 30 uM by Western blot analysis; format: functional, cell-based; conditions: dose 10-30 µM
NCI-H460 [6] = assay: Induction of apoptosis in human NCI-H460 cells assessed as upregulation of cleaved caspase 3 expression at 10 to 30 uM by Western blot analysis; format: functional, cell-based; conditions: dose 10-30 µM
A549 [7] = assay: Induction of autophagy in human A549 cells assessed as increase in fluorescence intensity of anti-LC3 incubated for 48 hrs by immunofluorescence staining based analysis; format: functional, cell-based; conditions: dose 10-30 µM
A549 [8] = assay: Antiproliferative activity against human A549 cells assessed as inhibition of cell proliferation in presence of temsirolimus by CCK8 assay; format: functional, cell-based
[9] = system: Gefitinib-resistant A549/G cell; assay: Inhibition of Akt/mTOR signaling pathway in human Gefitinib-resistant A549/G cell assessed as decrease in phosphorylated 4EBP1 expression in presence of gefitinib by Western blot analysis; format: cell-based
NCI-H460 [10] = assay: Induction of apoptosis in human NCI-H460 cells assessed as decrease in Bcl2 expression at 10 to 30 uM by Western blot analysis; format: functional, cell-based; conditions: dose 10-30 µM
[11] = system: Gefitinib-resistant A549/G cell; assay: Antiproliferative activity against human Gefitinib-resistant A549/G cell assessed as inhibition of cell proliferation in presence of gefitinib; format: functional, cell-based
A549 [12] = assay: Antiproliferative activity against human A549 cells assessed as reduction in cell viability incubated for 48 hrs by CCK8 assay; format: functional, cell-based; conditions: A549, 48 h
A549 [13] = assay: Induction of apoptosis in human A549 cells assessed as necrotic cells at 30 uM incubated for 24 hrs by Annexin V-FITC/PI staining based flow cytometric analysis (reference value: 0.97 %); format: functional
A549 [14] = assay: Cell cycle arrest in human A549 cells assessed as accumulation of cells at G1 phase at 30 uM incubated for 24 hrs by PI staining based flow cytometric analysis (reference value: 56.42 +/- 1.36 %); format: functional
NCI-H460 [15] = assay: Induction of apoptosis in human NCI-H460 cells assessed as early apoptotic cells at 10 uM incubated for 24 hrs by Annexin V-FITC/PI staining based flow cytometric analysis (reference value: 3.22 %); format: functional
NCI-H460 [16] = assay: Induction of apoptosis in human NCI-H460 cells assessed as viable cells at 30 uM incubated for 24 hrs by Annexin V-FITC/PI staining based flow cytometric analysis (reference value: 91.95 %); format: functional; conditions: read-out: Activity
NCI-H460 [17] = assay: Antiproliferative activity against human NCI-H460 cells assessed as reduction in cell viability incubated for 48 hrs by CCK8 assay; format: functional, cell-based; conditions: NCI-H460, 48 h
NCI-H460 [18] = assay: Inhibition of Akt/mTOR signalling pathway in human NCI-H460 cells assessed as decrease in phosphorylated 4EBP1 expression by Western blot analysis; format: cell-based; conditions: dose 10-30 µM
A549 [19] = assay: Induction of apoptosis in human A549 cells assessed as upregulation of cleaved caspase 3 expression at 10 to 30 uM by Western blot analysis; format: functional, cell-based; conditions: dose 10-30 µM
A549 [20] = assay: Induction of apoptosis in human A549 cells assessed as late apoptotic cells at 10 uM incubated for 24 hrs by Annexin V-FITC/PI staining based flow cytometric analysis (reference value: 2.29 %); format: functional
A549 [21] = assay: Induction of autophagy in human A549 cells assessed as increase in LC3-II expression at 10 to 30 uM incubated for 24 hrs by Western blot analysis; format: functional, cell-based; conditions: dose 10-30 µM
A549 [22] = assay: Induction of apoptosis in human A549 cells assessed as viable cells at 10 uM incubated for 24 hrs by Annexin V-FITC/PI staining based flow cytometric analysis (reference value: 96.29 %); format: functional; conditions: read-out: Activity
NCI-H460 [23] = assay: Inhibition of Akt/mTOR signalling pathway in human NCI-H460 cells assessed as decrease in c-myc expression by Western blot analysis; format: cell-based; conditions: dose 10-30 µM
BGC-823 = assay: Antiproliferative activity against human BGC-823 cells assessed as inhibition of cell proliferation at 3 to 300 uM incubated for 48 hrs by CCK8 assay; format: functional, cell-based; conditions: dose 3-300 µM
A549 [24] = assay: Induction of apoptosis in human A549 cells assessed as early apoptotic cells at 10 uM incubated for 24 hrs by Annexin V-FITC/PI staining based flow cytometric analysis (reference value: 0.44 %); format: functional
A549 [25] = assay: Induction of autophagy in human A549 cells assessed as increase in Atg5 expression at 10 to 30 uM incubated for 24 hrs by Western blot analysis; format: functional, cell-based; conditions: dose 10-30 µM
NCI-H460 [26] = assay: Induction of apoptosis in human NCI-H460 cells assessed as necrotic cells at 30 uM incubated for 24 hrs by Annexin V-FITC/PI staining based flow cytometric analysis (reference value: 0.68 %); format: functional
NCI-H460 [27] = assay: Induction of apoptosis in human NCI-H460 cells assessed as viable cells at 10 uM incubated for 24 hrs by Annexin V-FITC/PI staining based flow cytometric analysis (reference value: 91.95 %); format: functional; conditions: read-out: Activity
NCI-H460 [28] = assay: Cell cycle arrest in human NCI-H460 cells assessed as downregulation of cyclin D1 expression at 10 to 30 uM by Western blot analysis; format: functional, cell-based; conditions: dose 10-30 µM
A549 [29] = assay: Inhibition of Akt/mTOR signaling pathway in human A549 cells assessed as decrease in phosphorylated PRAS40 expression in presence of temsirolimus by Western blot analysis; format: cell-based
NCI-H460 [30] = assay: Inhibition of Akt/mTOR signaling pathway in human NCI-H460 cells assessed as decrease in phosphorylated PRAS40 expression in presence of temsirolimus by Western blot analysis; format: cell-based
NCI-H460 [31] = assay: Induction of autophagy in human NCI-H460 cells assessed as increase in fluorescence intensity of anti-LC3 incubated for 48 hrs by immunofluorescence staining based analysis; format: functional, cell-based; conditions: dose 10-30 µM
NCI-H460 [32] = assay: Induction of apoptosis in human NCI-H460 cells assessed as necrotic cells at 10 uM incubated for 24 hrs by Annexin V-FITC/PI staining based flow cytometric analysis (reference value: 0.68 %); format: functional
NCI-H460 [33] = assay: Induction of autophagy in human NCI-H460 cells assessed as increase in LC3-II expression at 10 to 30 uM incubated for 24 hrs by Western blot analysis; format: functional, cell-based; conditions: dose 10-30 µM
NCI-H460 [34] = assay: Inhibition of colony formation in human NCI-H460 cells at 10 to 30 uM incubated for 24 hrs by giemsa staining based analysis; format: functional, cell-based; conditions: dose 10-30 µM
A549 [35] = assay: Inhibition of Akt/mTOR signaling pathway in human A549 cells assessed as decrease in phosphorylated 4EBP1 expression in presence of temsirolimus by Western blot analysis; format: cell-based
[36] = system: Gefitinib-resistant A549/G cell; assay: Inhibition of Akt/mTOR signaling pathway in human Gefitinib-resistant A549/G cell assessed as decrease in mTOR expression in presence of gefitinib by Western blot analysis; format: cell-based

N#C[Se]CCCNC(=O)c1cccnc1
inhibition (A549 [1]): Dose-dependent-effect; Inhibitory Ability Of Compound Is Comparable To Temsirolimus | inhibition (NCI-H460 [2]): Active | Activity (NCI-H460 [3]): Active | Activity (A549 [4]): Active; G1 Phase Cell Cycle Arrest Observed | Activity (A549 [5]): Active | Activity (NCI-H460 [6]): Active | Activity (A549 [7]): Dose-dependent-effect | Activity (A549 [8]): Active | inhibition [9]: Active | Activity (NCI-H460 [10]): Active | Activity [11]: Active | IC50 (A549 [12]): 15.4 µM | Activity (A549 [13]): 5.12% | Activity (A549 [14]): 78.51% | Activity (NCI-H460 [15]): 5.81% | viability at 30 µM (NCI-H460 [16]): 74.7% | IC50 (NCI-H460 [17]): 17.4 µM | inhibition (NCI-H460 [18]): Dose-dependent-effect; Inhibitory Ability Of Compound Is Comparable To Temsirolimus | Activity (A549 [19]): Active | Activity (A549 [20]): 8.48% | Activity (A549 [21]): Active | viability at 10 µM (A549 [22]): 84.8% | inhibition (NCI-H460 [23]): Dose-dependent-effect; Inhibitory Ability Of Compound Is Comparable To Temsirolimus | Activity (BGC-823): inactive | Activity (A549 [24]): 3.66% | Activity (A549 [25]): Active | Activity (NCI-H460 [26]): 5.22% | viability at 10 µM (NCI-H460 [27]): 81.5% | Activity (NCI-H460 [28]): Active; G1 Phase Cell Cycle Arrest Observed | inhibition (A549 [29]): Active | inhibition (NCI-H460 [30]): Active | Activity (NCI-H460 [31]): Dose-dependent-effect | Activity (NCI-H460 [32]): 3.73% | Activity (NCI-H460 [33]): Active | inhibition (NCI-H460 [34]): Active | inhibition (A549 [35]): Active | inhibition [36]: Active
